Data: US20110105393A1, “METHODS FOR PROMOTING STEM CELL PROLIFERATION AND SURVIVAL” (priority 2007, published 2011)

Key:
Ang-1 = Ang-1 expression in fetal NSC cultures; type: cell-based, mouse; conditions: fetal NSCs in culture, treatment 2 days
Experimental: (§1) Cell culture: E13.5 cortical embryonic mouse CNS stem cells were grown as previously described (Johe, et al., Genes Dev 10, 3129-40, 1996). Cells were expanded in serum-free DMEM/F12 medium with N2 supplement and FGF2 (20 ng/ml) for 5 days under 5% oxygen conditions and were re-plated fresh or from frozen stocks at 1,000-10,000 cells per cm^2. FGF2 was included throughout the studies, unless otherwise stated. Adult rat (3-6 months old) or adult mouse (2-4 months old) SVZ NSC cultures were grown in the same medium as the fetal cultures.
(§2) Fetal NSCs in culture express Ang-1, and treatment (2 days) with Dll4 maintained it whereas CNTF reduced it. Ang-2 expression was maintained under these conditions. […] Ang-2 induced mTOR and STAT3-S727 phosphorylation, unlike Ang-1 (FIG. 2a). Ang-1, however, induced Akt phosphorylation.

Notch receptor = Notch receptor cleavage (activation) in NSC cultures; type: cell-based, mouse
Experimental: as §1
Pharmacological treatments: Unless otherwise stated, the following concentrations were used: Dll4 and Ang-2 (in vitro, 500 ng/ml; in vivo 12.5 μg as a single injection), FGF2 (in vitro, 20 ng/ml), JAK inhibitor (in vitro, 200 nM; in vivo, 250 ng as a single injection), insulin (in vitro, 25 μg/ml; in vivo, 40 μg as a single injection), DAPT (1 μM), Fluorogold (0.5 μg). For the survival assays, compounds were added daily and Notch ligands every 2 days for the duration of the experiment. For the effects of kinase inhibitors on Notch activation, cells were pre-incubated for 1 h prior to Notch activation.
It was previously shown that in NSCs Notch activation leads to rapid phosphorylation of Akt (Androutsellis-Theotokis, A. et al., Nature 442, 823-6, 2006), a mediator of insulin signalling (Cantley, Science 296, 1655-7, 2002). […] Activation of the Notch receptor by addition of insulin or Dll4 was inhibited by DAPT, a γ-secretase inhibitor that blocks Notch cleavage. […] Insulin maintained STAT3-Ser727 phosphorylation levels, and acutely (1-h) induced it following a 16-h insulin withdrawal phase (FIG. 1c).

mTOR = mTOR phosphorylation in NSC cultures (Western blot); type: cell-based, mouse
Experimental: as §1, §2
Three characterized Tie-2 receptor antibodies were used to determine if the Tie-2 receptor was expressed in the immature neural precursor cells found in the SVZ of the adult brain. When ligand is bound, the Tie-2 receptor becomes phosphorylated. An antibody that recognizes the activated receptor (RnD Systems, AF2720) and another antibody that binds to a distinct site (Santa Cruz, sc-324) identified many positive cells in the subventricular zone of the adult rat brain. In regions that were more distant from the ventricle, Tie-2 was expressed predominantly on blood vessels and endothelial cells reacted with antibodies against the activated receptor. Precursor cells that proliferate in vitro can be readily derived from the fetal and adult brain. The homogeneity of these cell populations in attached culture and their potential to generate neurons and glia is supported by clonal analysis. […] This colony number assay measured the survival of precursor cells that could differentiate into neurons and glia (See, Table 1).

Tie-2 receptor = assay: Tie-2 phosphorylation in fetal neural cells (Western blot); type: cell-based, mouse; conditions: exogenous addition, Western blot (FIG. 10a)
Experimental: as §1, with “Culture:” for “culture:”, “(Johe” for “(Johe,”, “3129,” for “3129-40,”, “our experiments,” for “the studies,”, “Neural Stem Cell (NSC)” for “NSC”
Pharmacological treatments: Unless otherwise stated, we used the following concentrations: Dll4 and Ang2 (in vitro, 500 ng/ml; in vivo 12.5 μg as a single injection), FGF2 (in vitro, 20 ng/ml), JAK inhibitor (in vitro, 200 nM; in vivo, 250 ng as a single injection), insulin (in vitro, 25 μg/ml; in vivo, 40 μg as a single injection), DAPT (1 μM), Fluorogold (0.5 μg). […]
Three characterized Tie-2 receptor antibodies were used to determine if the Tie-2 receptor was expressed in the immature neural precursor cells found in the SVZ of the adult brain. […] Precursor cells that proliferate in vitro can be readily derived from the fetal and adult brain. […] This colony number assay measured the survival of precursor cells that could differentiate into neurons and glia (See, Table 1).

For “Dll4: Notch ligand Delta-like 4; mouse Dll4 (1389-D4) from R&D”, the Ang-1 expression (Ang-1) was “maintained”.

With “insulin: insulin (Sigma, 19278), growth factor” the Notch activation (Notch receptor; acute (1 h) treatment after insulin withdrawal for 2 days) was “induced Notch activation” and the “cleavage (activation) of the Notch receptor” value (Notch receptor; treatment of NSC cultures) was “induced cleavage”.

For “Ang-2: human angiopoietin-2 (623-AN) from R&D; antagonist for angiopoietin-1 at Tie2”, the mTOR phosphorylation (mTOR; NSC cultures, 0.5 μg/ml (FIG. 2a, Example 3)) was “induced”, the “effect on mTOR” value (mTOR; Western blots, fetal neural cells (FIG. 10a, Example 9)) was “no effect” and the “phosphorylation of Tie-2” value (Tie-2 receptor) was “promoted phosphorylation”. For the same substance, the “pathology associated with the 6OHDA lesion” value (single intraventricular injection 2 weeks after lesion) was “hemorrhage and an enlarged ventricle” and the risk of bleeding (summary of in vivo treatments) was “increases the risk of bleeding”.
